Experimental data published in patent USRE47528E1, “Protease for wound conditioning and skin care” (B.R.A.I.N. BIOTECHNOLOGY RESEARCH AND INFORMATION NETWORK AG, priority 2009, dated 2019).
“Also recorded” adds a separate entry of the source.

Assays:
[1] = system: larval secretions; conditions: cited from earlier work
[2] = system: debrilase; assay: Liquid phase activity assay and inhibitory profiling (BODIPY-FL-Casein fluorescence assay); assay type: biochemical, Lucilia sericata; conditions: for inhibition of debrilase activity: PMSF 5 mmol/l, APMSF 1 mmol/l
Method: Quantification of proteolytic activity was conducted by a fluorescence assay in 96-well plates with BODIPY-FL-Casein (Molecular Probes) used as substrate. Hereby, on the undigested substrate casein the labelling molecules are in close contact to each other and therefore fluorescence is suppressed by a quenching mechanism. In case of hydrolysis these molecules separate from each other and fluorescence can be excited at 485 nm and measured at 520 nm.
A standard assay contained 5 μg/ml BODIPY-FL-Casein in 100 μl PBS buffer and a series of dilutions of protease extract. Samples were incubated for 60 min at 37° C. and fluorescence was measured using a spectrophotometer (NovoStar, BMG LABTECH, Offenburg, Germany), applying the following parameters: excitation 485 nm, emission 520 nm, gain 5, one cycle, 10 flashes. Serine protease inhibitors APMSF (4-amidinophenylmethanesulfonyl fluoride) and PMSF (phenylmethanesulfonyl fluoride) were used for testing the specificity of the isolated protease. The following assay concentration were used:
The recombinant protease type was identified in a liquid assay in a 96-well plate using inhibitors specific for different types of proteases. Herein, specific inhibitors for trypsin (4-amidinophenylmethyl-sulphonyl fluoride, APMSF), serine (phenylmethylsulphonyl fluoride, PMSF), aspartyl-(pepstatin A) and metallo-type proteases (1,10-phenanthroline) were measured.

[3] = system: Lucilia sericata debrilase (trypsin-like serine protease), mature protein SEQ ID NO: 4, pre-propeptide SEQ ID NO: 2; assay: Enzyme kinetics of Debrilase, fluorometric assay with Z-Gly-Gly-Arg-AMC; assay type: biochemical
Method: (§1) Activity of the debrilase was measured in liquid assay using appropriate buffer systems in the range of 3-10 (0.1 to 0.2 M citric acid buffer, pH 3-7; 0.05 M tris buffer, pH 8; 0.1 M carbonate buffer, pH 9-10) and the fluorogenic substrate Z-Gly-Gly-Arg-AMC. The release of 7-amino-4-methylcoumarin (AMC) was measured with a BMC Novostar Fluorometer (λexcitation 365 nm, λemission 440 nm).
Molecular and Enzymatic Properties of Debrilase

[4] = system: casein; assay: Diffusion assay on agar containing casein / skim milk; assay type: biochemical
Source text: FIG. 1: Diffusion assay on agar containing casein showing a clearing zone around a debrilase secreting clone of E. coli.
Colony forming units resulted from mass excision described above were screened on agar media containing 2% skim milk under selective conditions. Expression of heterologous proteases was driven by the vector comprising inducible Plac promoter. Colonies expressing heterologous proteases were detected by the formation of clearing zones in the turbid Skim Milk medium around the colonies.

[5] = system: fibrin; assay: Solid phase activity assay for fibrinolytic activity (fibrin agar); assay type: biochemical; conditions: fibrin containing agar
Method: To identify fibrinolytic activity in extracts of casein degrading clones a solid agar assay was used. For this, a solution A containing 200 mg agarose, 87 mg NaCl and 3 mg CaCl2 were added to 10 ml 0.1 M Tris pH7.4 and incubated at 50° C. To a second solution B containing 10 ml 0.9% NaCl and 100 mg Fibrin (Sigma F3879), 20 μl Plasminogen (2 units/mg, Sigma P7397) e added and pre-incubated at 50° C. Both solutions were combined with 12 μl Thrombin (175-350 NIH units, Sigma T4265) and spread on agar plates using micro-well forming devices. In case of a fibrinolytic activity a clear zone appears in the opaque medium around extract containing cavities.
To identify fibrinolytic activity in casein degrading clones a solid agar assay was used. Therefore a medium A consisting of 10 ml 2× Luria Bertani containing 200 mg agarose, 87 mg NaCl and 3 mg CaCl2 was incubated at 50° C. To a solution B containing 10 ml 0.9% NaCl and 100 mg Fibrin (Sigma F3879), 20 μl plasminogen (2 units/mg, Sigma P7397) was added and pre-incubated at 50° C. […]
Fibrinolytic activity in cell free crude extracts was determined using buffered agar medium containing fibrin. […] Crude extract with fibrinolytic activity was detected by a clear zone around microwells of the recombinant clone harbouring the protease gene of SEQ ID NO. […]

[6] = system: Z-Gly-Gly-Arg-AMC; assay: Fluorometric liquid assay using Z-Gly-Gly-Arg-AMC as substrate; assay type: biochemical
Method: as §1

[7] = molecular target: T1, human PAR2 (Homo sapiens, UniProt P55085); assay: Activation of PAR 2 (calcium imaging) in HEK293 cells; assay type: cell-based; conditions: HEK293 cells endogenously expressing human PAR2, Ca2+-flux read-out
T1 construct: wild type HEK293 cell line endogenously expressing human PAR2; endogenous in cells; host or cells: HEK293
T1 sequence (P55085 26-397): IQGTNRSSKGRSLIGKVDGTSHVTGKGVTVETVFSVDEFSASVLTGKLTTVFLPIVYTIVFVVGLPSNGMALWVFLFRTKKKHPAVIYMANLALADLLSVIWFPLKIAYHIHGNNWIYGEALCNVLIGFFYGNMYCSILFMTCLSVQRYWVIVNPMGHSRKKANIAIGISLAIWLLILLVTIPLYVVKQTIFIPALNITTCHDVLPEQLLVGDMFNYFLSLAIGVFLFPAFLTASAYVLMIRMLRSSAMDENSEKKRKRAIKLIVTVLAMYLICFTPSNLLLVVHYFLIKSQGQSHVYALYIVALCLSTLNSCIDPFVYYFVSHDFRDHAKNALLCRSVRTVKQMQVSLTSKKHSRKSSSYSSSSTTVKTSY
Method: The activity of debrilase as agonist of PAR 2 was monitored over time in a cell based fluorescence assay by use of a wild type HEK293 cell line endogenously expressing human PAR2. In brief, 1 day prior to performing the assay, HEK293 cells expressing human PAR2 were plated onto 96-well, black-walled, assay plates, at a density of 45,000 cells per well. Using a 96-well microplate reader (FlexStation®, Molecular Devices, Sunnyvale, Calif.), the change of the cellular calcium concentration was monitored by use of the calcium sensitive fluorescent dye fluo-4 (excitation 494 nm, emission 516 nm). The PAR 2 agonist trypsin (8 nM) was used as positive control. The dye-loaded cells in plates were placed into the fluorescence microplate reader to monitor fluorescence (excitation 488 nm, emission 520 nm) change after the addition of 50 μl assay buffer (118 mM NaCl; 4.7 mM KCl; 1.2 mM MgSO4; 1.2 mM KH2PO4 4.2 mM […]; 1.3 mM CaCl2; 10 mM HEPES (pH: 7.4)) supplemented with an agonist. Calcium mobilization was quantified as the change of peak fluorescence (ΔF) over the baseline level (F). Data were expressed as the mean S.E. of the ΔF/F value (=RFU, relative fluorescence units) of replicated independent samples. The analysis was done with the software of the FlexStation®.

[8] = system: Tosyl-Gly-Pro-Arg-AMC; assay: Proteolytic activity against Tosyl-Gly-Pro-Arg-AMC; assay type: biochemical
[9] = system: Suc-Ala-Ala-Phe-AMC; assay: Proteolytic activity against Suc-Ala-Ala-Phe-AMC; assay type: biochemical

Molecule: c1cnc2c(c1)ccc1cccnc12 [1,10-phenanthroline]
- inhibition of degradation of laminin and fibronectin by larval secretions [1]: not significantly

Molecule: N=C(N)c1ccc(CS(=O)(=O)F)cc1 [APMSF, 4-amidinophenylmethanesulfonyl fluoride]
- inhibition of proteolytic activity of debrilase against casein and fibrin [2]: inhibited
- inhibition of debrilase activity [2]: inhibited completely
- inhibition of degradation of laminin and fibronectin by larval secretions [1]: not significantly

Molecule: O=S(=O)(F)Cc1ccccc1 [PMSF, phenylmethanesulfonyl fluoride]
- inhibition of proteolytic activity of debrilase against casein and fibrin [2]: inhibited
- inhibition of debrilase activity [2]: inhibited completely
- inhibition of degradation of laminin and fibronectin by larval secretions [1]: inhibited

Molecule: Cc1cc(=O)oc2cc(NC(=O)[C@H](CCCNC(=N)N)NC(=O)CNC(=O)CNC(=O)OCc3ccccc3)ccc12 [Z-Gly-Gly-Arg-AMC]
- Kcat ([3]; Table 1, substrate Z-Gly-Gly-Arg-AMC (footnote)): 37.5 s⁻¹
- Km ([3]; substrate Z-Gly-Gly-Arg-AMC, fluorometric assay): 70 µM

B1: debrilase: recombinant trypsin-like serine protease from Lucilia sericata; mature protein SEQ ID NO: 4 (protein, listed as Lucilia sericata)
chain: IVNGVDTTIQAHPYQVSLQTNNGFHFCGGSIISEDIIVTAAHCMQSYKAYQFKVRLGSTEYDNGGELVAVKSFKYHEGYNPETMVNDVAVIKLATPVRESSKVRYVKLAEKTPATGTPAVVTGWGSKCFLFCQTAPKVLQKVEVDIVDEKTCASSEYKYGDDIKETMLCAYAVKKDACQGDSGGPLVANNKLVGVVSWGKGCALAGYPGVYCDVATVRSWIEKTAKSL
- caseinolytic activity (cleavage of casein) [4]: clearing zone; also recorded: ability to cleave fibrin and casein; also recorded: exhibits proteolytic activity against fibrin, casein
- fibrinolytic activity (cleavage of fibrin) [5]: clearing zone; also recorded: ability to cleave fibrin; also recorded: exhibits proteolytic activity against fibrin
- Topt [6]: 37 °C
- pHopt [6]: 8
- pH-range of enzymatic activity ([6]; buffer systems in the range of pH 3-10, Z-Gly-Gly-Arg-AMC): 5-10 pH
- specific activity ([6]; fluorometric assay using Z-Gly-Gly-Arg-AMC as substrate): 90 μmol* · min^−1 · mg^−1 enzyme
- activation of protease-activated receptor 2 (PAR 2) [7]: activates the protease-activated receptor PAR-2
- proteolytic activity against Tosyl-Gly-Pro-Arg-AMC [8]: exhibits proteolytic activity against fibrin, casein and Tosyl-Gly-Pro-Arg-AMC
- proteolytic activity against Suc-Ala-Ala-Phe-AMC [9]: not against Suc-Ala-Ala-Phe-AMC
